Experimental data reported in patent publication US9809545B2, “Factor XIa inhibitors” (Merck Sharp & Dohme Corp., priority 2013, dated 2017).

The compounds below were run against purified human Factor XIa (Homo sapiens (Human), UniProt P03951) (assay: Factor XIa Assay). Conditions: purified human Factor XIa 40 pM; substrate Z-Gly-Pro-Arg-AFC 100 μM; 50 mM HEPES pH 7.4; read-out: hFXIa Ki.
Sequence of purified human Factor XIa (P03951 388-625): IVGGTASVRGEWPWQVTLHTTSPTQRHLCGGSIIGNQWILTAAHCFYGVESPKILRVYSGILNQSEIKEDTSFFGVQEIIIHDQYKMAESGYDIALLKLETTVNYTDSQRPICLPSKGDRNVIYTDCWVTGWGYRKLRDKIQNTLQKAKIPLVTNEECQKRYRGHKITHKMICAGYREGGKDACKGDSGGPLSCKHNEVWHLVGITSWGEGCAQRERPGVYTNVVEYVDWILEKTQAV
Sequence of purified human Factor XIa (P03951 19-387 partner): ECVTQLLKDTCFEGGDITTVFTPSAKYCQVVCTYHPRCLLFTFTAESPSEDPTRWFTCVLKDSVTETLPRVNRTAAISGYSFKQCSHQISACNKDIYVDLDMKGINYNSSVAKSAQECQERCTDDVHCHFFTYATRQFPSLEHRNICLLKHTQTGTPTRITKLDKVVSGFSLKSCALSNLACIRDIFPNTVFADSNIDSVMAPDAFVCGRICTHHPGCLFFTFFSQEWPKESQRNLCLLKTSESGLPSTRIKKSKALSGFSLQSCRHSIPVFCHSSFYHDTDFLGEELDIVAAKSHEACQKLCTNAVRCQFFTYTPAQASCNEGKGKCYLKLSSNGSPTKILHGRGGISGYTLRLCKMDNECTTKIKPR
Format: biochemical
A Ki of over 10000 nM was found for `O=C(C(Cc1ccccc1)n1ccc(-c2cc(Cl)ccc2[N+](=O)[O-])cc1=O)N1CCC(N2CC[C@@H](O)C2)CC1` (stereo partly drawn) [Example 1Aw, 4-(5-chloro-2-nitrophenyl)-1-(1-(4-((R)-3-hydroxypyrrolidin-1-yl)piperidin-1-yl)-1-oxo-3-phenylpropan-2-yl)pyridin-2(1H)-one] in this work. A Ki of under 5 nM was found for `O=C(O)c1ccc2[nH]c([C@H](Cc3ccccc3)n3ccc(-c4cc(Cl)ccc4-n4cnnn4)cc3=O)nc2c1` [Example 3g, (S)-2-(1-(4-(5-chloro-2-(1H-tetrazol-1-yl)phenyl)-2-oxopyridin-1(2H)-yl)-2-phenylethyl)-1H-benzo[d]imidazole-5-carboxylic acid] in this work. A Ki of under 5 nM was found for `N#Cc1ccc(-c2cnc([C@@H](Cc3ccc(F)cc3)n3ccc(-c4cc(Cl)ccc4-n4cnnn4)cc3=O)[nH]2)cc1` [Example 4Cl, (R)-4-(2-(1-(4-(5-chloro-2-(1H-tetrazol-1-yl)phenyl)-2-oxopyridin-1(2H)-yl)-2-(4-fluorophenyl)ethyl)-1H-imidazol-5-yl)benzonitrile] in this work. A Ki of 6 nM was found for `O=C(O)c1ccc(NC(=O)[C@H](Cc2ccc(F)cc2)n2ccc(-c3cc(Cl)ccc3-n3cnnn3)cc2=O)cc1` [Example 1Ea, (S)-4-(2-(4-(5-chloro-2-(1H-tetrazol-1-yl)phenyl)-2-oxopyridin-1(2H)-yl)-3-(4-fluorophenyl)propanamido)benzoic acid] in this work. A Ki of under 5 nM was found for `O=C(O)c1ccc2[nH]c([C@H](Cc3ccc(F)cc3)n3ccc(-c4cc(Cl)ccc4-n4cnnn4)cc3=O)nc2c1` [Example 3Bd, (S)-2-(1-(4-(5-chloro-2-(1H-tetrazol-1-yl)phenyl)-2-oxopyridin-1(2H)-yl)-2-(4-fluorophenyl)ethyl)-1H-benzo[d]imidazole-5-carboxylic acid] in this work. A Ki of 340 nM was found for `COC(=O)Nc1ccc(CNC(=O)C(Cc2ccccc2)n2ccc(-c3cc(Cl)ccc3[N+](=O)[O-])cc2=O)cc1` (centres unmarked) [Example 1Al, methyl (4-((2-(4-(5-chloro-2-nitrophenyl)-2-oxopyridin-1(2H)-yl)-3-phenylpropanamido)methyl)phenyl)carbamate] in this work. A Ki of under 5 nM was found for `O=C(O)c1ccc(NC(=O)[C@H](Cc2ccccc2)n2ccc(-c3cc(Cl)ccc3-n3cnnn3)cc2=O)cc1` [Example 1Ef, (S)-4-(2-(4-(5-chloro-2-(1H-tetrazol-1-yl)phenyl)-2-oxopyridin-1(2H)-yl)-3-phenylpropanamido)benzoic acid] in this work. A Ki of 7750 nM was found for `O=C(O)c1ccc(NC(=O)C(Cc2ccccc2)n2ccc(-c3cnccc3Cl)cc2=O)cc1` (centres unmarked) [Example 2Af, 4-(2-(4-chloro-2′-oxo-[3,4′-bipyridin]-1′(2′H)-yl)-3-phenylpropanamido)benzoic acid] in this work. A Ki of under 5 nM was found for `O=c1cc(-c2cc(Cl)ccc2-n2cnnn2)ccn1C(Cc1ccccc1)c1nc(-c2cccnc2)c[nH]1` (centres unmarked) [Example 4Aa, 4-(5-chloro-2-(1H-tetrazol-1-yl)phenyl)-1-(2-phenyl-1-(4-(pyridin-3-yl)-1H-imidazol-2-yl)ethyl)pyridin-2(1H)-one] in this work. A Ki of under 5 nM was found for `O=c1cc(-c2cc(Cl)ccc2-n2cnnn2)ccn1[C@@H](Cc1ccc(F)cc1)c1nc2cc(P(=O)(O)O)ccc2[nH]1` [Example 5b, (S)-(2-(1-(4-(5-chloro-2-(1H-tetrazol-1-yl)phenyl)-2-oxopyridin-1(2H)-yl)-2-(4-fluorophenyl)ethyl)-1H-benzo[d]imidazol-5-yl)phosphonic acid] in this work. A Ki of 400 nM was found for `CCOC(=O)Nc1ccc(NC(=O)C(Cc2ccccc2)n2ccc(-c3cc(Cl)ccc3[N+](=O)[O-])cc2=O)cc1` (centres unmarked) [Example 1Ag, ethyl (4-(2-(4-(5-chloro-2-nitrophenyl)-2-oxopyridin-1(2H)-yl)-3-phenylpropanamido)phenyl)carbamate] in this work. A Ki of 6 nM was found for `O=C(O)c1ccc(NC(=O)[C@@H](Cc2ccccc2)n2ccc(-c3cc(Cl)ccc3-n3cnnn3)cc2=O)cc1` [Example 1Ff, (R)-4-(2-(4-(5-chloro-2-(1H-tetrazol-1-yl)phenyl)-2-oxopyridin-1(2H)-yl)-3-phenylpropanamido)benzoic acid] in this work. A Ki of 154 nM was found for `O=c1cc(-c2cc(Cl)ccc2-n2cnnn2)ccn1C(Cc1ccc(F)cc1)c1nc(-c2ccc(F)cc2)c[nH]1` (centres unmarked) [Example 4Af, 4-(5-chloro-2-(1H-tetrazol-1-yl)phenyl)-1-(2-(4-fluorophenyl)-1-(4-(4-fluorophenyl)-1H-imidazol-2-yl)ethyl)pyridin-2(1H)-one] in this work. A Ki of 370 nM was found for `N=C(N)c1ccc(-c2ccn(C(Cc3ccccc3)C(=O)Nc3ccc(C(=O)O)cc3)c(=O)c2)cc1` (centres unmarked) [Example 2d, 4-(2-(4-(4-carbamimidoylphenyl)-2-oxopyridin-1(2H)-yl)-3-phenylpropanamido)benzoic acid] in this work.
